The numbers were not newly measured in patent EP0420232B1, “Water soluble derivatives of glycoside bioflavonoids, processes for their preparation and related pharmaceutical compositions” (EUROPEAN PHARMACY Srl, priority 1989, dated 1991), which cites them from elsewhere.

The conditions of data set [1]: background statement.
The conditions of data set [2]: at room temperature; background statement.

Consider `COc1ccc(-c2cc(=O)c3c(O)cc(O[C@@H]4O[C@H](CO[C@@H]5O[C@@H](C)[C@H](O)[C@@H](O)[C@H]5O)[C@@H](O)[C@H](O)[C@H]4O)cc3o2)cc1O` [diosmin, 7-ramnoglycoside of 5,7,3'-trihydroxy-4'-methoxyflavone], for which the toxicity result in data set [1] was “devoid of toxicity”.

As to `C[C@@H]1O[C@@H](OC[C@H]2O[C@@H](Oc3c(-c4ccc(O)c(O)c4)oc4cc(O)cc(O)c4c3=O)[C@H](O)[C@@H](O)[C@@H]2O)[C@H](O)[C@H](O)[C@H]1O` [rutin, 3-rutinoside of 3, 3', 4', 5,7-penthahydroxyflavone], the toxicity result in data set [1] is listed as “devoid of toxicity”. The solubility in water result in data set [2] is on record as “very poorly soluble”.
